From patent US4808718A, “Fused polycyclic and bridged compounds useful as calcium channel blockers” (Merck & Co., Inc., priority 1986, dated 1989)
Like-named read-outs stand apart in the source and are kept apart here.

Target: T1, nitrendipine binding (purified sarcolemal vesicles) (Homo sapiens, UniProt Q13936)
T1 construct: purified sarcolemal vesicles in 50 mM tris-HCl; from tissue
Test: nitrendipine binding assay ([^3 H] nitrendipine, purified sarcolemal vesicles)
Description: As stated earlier, the compounds of the present invention have a property that enables them to be used as calcium entry blockers in the treatment of cardiovascular disorders.
In a representative assay, […] of purified sarcolemal vesicles in 50 mM tris-HCl, 10 uM calcium chloride, and […] magnesium chloride at pH 7.4 were incubated with […] [^3 H] nitrendipine (78 Ci/mmol) with or without test compound in a final volume of […] for 3 hours at 25° C. The inhibition constant Ki is determined according to the following equation: [formula] where I50 is the compound concentration that produces 50 percent inhibiton of binding, [L] is ligand concentration, and kd is the affinity constant of the ligand.

[1] = purified sarcolemal vesicles, 50 mM tris-HCl, pH 7.4, 0.23 mM [^3 H] nitrendipine, 3 hours at 25° C., read-out: Ki, Inhibition of Nitrendipine Binding

T1 sequence (Q13936 whole entry): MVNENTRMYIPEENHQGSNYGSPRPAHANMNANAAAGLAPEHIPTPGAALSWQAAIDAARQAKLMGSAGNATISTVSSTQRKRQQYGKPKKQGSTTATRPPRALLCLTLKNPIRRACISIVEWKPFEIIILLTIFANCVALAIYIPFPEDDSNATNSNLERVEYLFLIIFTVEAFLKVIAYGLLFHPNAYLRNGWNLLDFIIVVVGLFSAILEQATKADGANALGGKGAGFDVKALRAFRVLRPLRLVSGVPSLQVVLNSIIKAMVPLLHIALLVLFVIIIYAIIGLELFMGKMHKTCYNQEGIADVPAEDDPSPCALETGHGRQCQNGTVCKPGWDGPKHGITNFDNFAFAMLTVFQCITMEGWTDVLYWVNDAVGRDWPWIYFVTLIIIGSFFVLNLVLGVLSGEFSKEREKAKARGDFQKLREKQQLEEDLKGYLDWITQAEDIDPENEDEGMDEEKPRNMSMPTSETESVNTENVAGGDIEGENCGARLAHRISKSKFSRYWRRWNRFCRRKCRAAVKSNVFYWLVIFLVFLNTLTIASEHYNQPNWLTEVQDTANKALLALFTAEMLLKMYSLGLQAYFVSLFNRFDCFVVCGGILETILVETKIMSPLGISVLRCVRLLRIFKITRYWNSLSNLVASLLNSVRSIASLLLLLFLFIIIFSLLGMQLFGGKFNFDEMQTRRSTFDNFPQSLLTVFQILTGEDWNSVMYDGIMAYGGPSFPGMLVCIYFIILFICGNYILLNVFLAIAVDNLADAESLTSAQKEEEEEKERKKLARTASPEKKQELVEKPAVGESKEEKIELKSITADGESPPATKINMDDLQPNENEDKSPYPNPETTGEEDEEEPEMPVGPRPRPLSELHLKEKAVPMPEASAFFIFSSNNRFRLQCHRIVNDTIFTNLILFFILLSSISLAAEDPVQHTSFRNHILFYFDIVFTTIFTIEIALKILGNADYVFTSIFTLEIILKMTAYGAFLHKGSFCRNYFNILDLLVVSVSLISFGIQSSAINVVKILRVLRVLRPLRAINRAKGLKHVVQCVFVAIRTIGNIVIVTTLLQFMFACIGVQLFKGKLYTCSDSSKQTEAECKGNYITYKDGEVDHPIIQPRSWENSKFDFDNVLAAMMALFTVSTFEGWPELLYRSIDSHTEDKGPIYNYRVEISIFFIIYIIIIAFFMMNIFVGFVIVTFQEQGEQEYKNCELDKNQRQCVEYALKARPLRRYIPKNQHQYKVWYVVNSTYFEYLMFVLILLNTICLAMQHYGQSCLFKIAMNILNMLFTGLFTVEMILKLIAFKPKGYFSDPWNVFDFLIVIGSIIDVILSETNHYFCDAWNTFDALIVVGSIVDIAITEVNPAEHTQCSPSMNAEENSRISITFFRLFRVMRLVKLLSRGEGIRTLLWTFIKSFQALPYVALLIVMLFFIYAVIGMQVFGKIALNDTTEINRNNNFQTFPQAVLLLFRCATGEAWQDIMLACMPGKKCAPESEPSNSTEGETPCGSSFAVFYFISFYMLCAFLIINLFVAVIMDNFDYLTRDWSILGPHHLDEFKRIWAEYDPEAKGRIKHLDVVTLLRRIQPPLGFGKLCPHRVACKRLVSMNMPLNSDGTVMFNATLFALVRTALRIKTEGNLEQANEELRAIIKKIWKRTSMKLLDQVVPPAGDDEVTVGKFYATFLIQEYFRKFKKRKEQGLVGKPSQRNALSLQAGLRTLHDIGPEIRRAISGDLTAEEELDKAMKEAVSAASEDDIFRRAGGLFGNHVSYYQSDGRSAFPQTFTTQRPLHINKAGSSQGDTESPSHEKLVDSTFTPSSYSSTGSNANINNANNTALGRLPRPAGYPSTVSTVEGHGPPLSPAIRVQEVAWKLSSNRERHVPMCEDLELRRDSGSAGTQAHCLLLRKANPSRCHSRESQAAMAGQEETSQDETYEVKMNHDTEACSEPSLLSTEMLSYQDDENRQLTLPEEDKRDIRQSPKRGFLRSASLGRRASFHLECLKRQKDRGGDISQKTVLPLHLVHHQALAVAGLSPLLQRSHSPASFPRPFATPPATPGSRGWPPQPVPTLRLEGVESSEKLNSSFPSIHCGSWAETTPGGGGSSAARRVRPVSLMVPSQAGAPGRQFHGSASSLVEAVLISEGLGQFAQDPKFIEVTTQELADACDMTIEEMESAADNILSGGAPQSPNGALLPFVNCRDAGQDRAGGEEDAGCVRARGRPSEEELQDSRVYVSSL
T1 sequence (P54289 25-944 partner limits assumed): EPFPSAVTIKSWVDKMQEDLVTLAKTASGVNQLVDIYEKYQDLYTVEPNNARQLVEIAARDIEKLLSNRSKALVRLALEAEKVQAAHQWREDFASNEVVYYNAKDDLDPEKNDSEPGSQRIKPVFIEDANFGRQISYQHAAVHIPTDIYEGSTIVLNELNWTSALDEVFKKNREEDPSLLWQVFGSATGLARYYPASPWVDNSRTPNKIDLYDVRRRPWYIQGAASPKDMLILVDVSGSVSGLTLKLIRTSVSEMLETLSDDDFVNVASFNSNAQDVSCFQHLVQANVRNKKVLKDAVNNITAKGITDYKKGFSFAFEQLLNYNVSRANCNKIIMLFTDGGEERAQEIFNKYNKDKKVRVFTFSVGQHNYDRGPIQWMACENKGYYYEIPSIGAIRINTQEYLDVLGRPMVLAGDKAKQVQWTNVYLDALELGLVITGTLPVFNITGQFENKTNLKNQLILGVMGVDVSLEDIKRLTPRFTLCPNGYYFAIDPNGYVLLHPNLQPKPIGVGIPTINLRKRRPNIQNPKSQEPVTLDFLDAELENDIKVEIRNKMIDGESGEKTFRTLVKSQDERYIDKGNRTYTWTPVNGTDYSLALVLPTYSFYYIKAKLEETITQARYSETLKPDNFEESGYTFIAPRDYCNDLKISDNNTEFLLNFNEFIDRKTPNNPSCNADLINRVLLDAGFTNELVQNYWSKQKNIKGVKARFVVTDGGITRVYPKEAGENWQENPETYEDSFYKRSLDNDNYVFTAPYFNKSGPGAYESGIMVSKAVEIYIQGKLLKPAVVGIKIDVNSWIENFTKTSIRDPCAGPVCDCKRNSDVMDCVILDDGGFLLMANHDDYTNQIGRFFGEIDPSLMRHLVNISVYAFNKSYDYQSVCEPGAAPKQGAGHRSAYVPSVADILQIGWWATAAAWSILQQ
T1 sequence (P54289 945-1103 partner limits assumed): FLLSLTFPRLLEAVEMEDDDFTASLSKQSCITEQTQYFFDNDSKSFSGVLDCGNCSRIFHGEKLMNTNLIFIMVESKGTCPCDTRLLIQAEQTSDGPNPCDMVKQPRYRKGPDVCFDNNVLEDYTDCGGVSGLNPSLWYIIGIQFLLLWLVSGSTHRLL
T1 sequence (Q08289 whole entry partner): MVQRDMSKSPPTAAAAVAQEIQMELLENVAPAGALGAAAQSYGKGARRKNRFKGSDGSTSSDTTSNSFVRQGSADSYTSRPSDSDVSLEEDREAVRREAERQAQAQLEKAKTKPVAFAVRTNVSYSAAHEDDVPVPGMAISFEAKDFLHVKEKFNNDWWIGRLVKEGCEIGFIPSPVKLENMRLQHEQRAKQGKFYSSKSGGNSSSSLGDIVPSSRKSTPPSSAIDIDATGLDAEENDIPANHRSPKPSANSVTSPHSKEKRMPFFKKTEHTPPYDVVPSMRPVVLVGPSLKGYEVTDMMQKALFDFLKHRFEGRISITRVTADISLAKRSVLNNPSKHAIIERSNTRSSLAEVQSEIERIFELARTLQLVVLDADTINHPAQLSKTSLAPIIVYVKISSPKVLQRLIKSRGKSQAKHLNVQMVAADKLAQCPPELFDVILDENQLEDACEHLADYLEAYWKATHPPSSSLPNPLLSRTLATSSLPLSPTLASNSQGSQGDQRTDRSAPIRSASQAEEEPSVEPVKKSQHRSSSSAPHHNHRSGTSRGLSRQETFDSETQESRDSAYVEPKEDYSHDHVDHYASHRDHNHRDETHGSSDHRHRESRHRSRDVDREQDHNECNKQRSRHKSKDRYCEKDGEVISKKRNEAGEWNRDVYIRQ

Compound	Ki [1]	Ki
COC(=O)C1C(c2ccccc2)C2(C(=O)OC)C(C)=NC1(C)CC2c1ccccc1 (stereo not drawn) [Example 2]	34 µM	–
COC(=O)C1C(c2ccccc2)C2(C(=O)OC)C(C)=NC1(C)C1CC=CC12 (stereo not drawn) [Example 3, Dimethyl 1,4A,7,8A-tetrahydro-1,3-dimethyl-8-phenyl-1,4-ethano-4H-2-azetidinyl-4,9-dicarboxylate]	61 µM	–
COC(=O)C1C(c2ccccc2)C2(C(=O)OC)C(C)=NC1(C)CC2C[Si](C)(C)C (stereo not drawn) [Example 1, Dimethyl 1,3-dimethyl-5-phenyl-8-[(trimethylsilyl)methyl]-2-azabicyclo[2.2.2]oct-2-ene-4,6-dicarboxylate]	–	17 µM
